This assay has as its system M. tuberculosis (21 clinical and CDC strains, pan-sensitive and multidrug resistant). As to the kind of experiment: microbe, parasite or virus in culture. The format is cell-based, Mycobacterium tuberculosis.

≈ marks a conversion by molar mass, not a printed value.

Consider `Cc1ccc(C)c(OCCCC(C)(C)C(=O)O)c1` [GFZ, Gemfibrozil], for which the “difference in sensitivity among the 21 strains” value is recorded as “No greater than a two fold difference”. Further, under “Mycobacterium tuberculosis, 504 h, read-out: MIC (GFZ concentration at which no growth was seen)”, the MIC lay in the range of 100 to 200 µg/mL (≈ 399 to 799 µM).

The values are drawn from patent US6713043B2 (priority 1996, dated 2004).
